Measured values from ChEMBL document CHEMBL3507680, “University of Dundee, Gates Library screen for HepG2 cell viability”.

Experiment: Human HepG2 cell viability assay in 384 well format
Assay type: toxicity, cell-based
Set-up: dose 125 nL, time 70.5 hour; concentration not given beside the values
Settings: HepG2 cells, read-out: Inhibition

| SMILES | cytotoxicity at 70.5 h [%] |
| --- | --- |
| COc1ccc(NC(=O)CNc2cccc3c2CCCC3)c(OC)c1 | 29.7 |
| CN1CCN(c2ncccc2CNc2ncccc2C#N)CC1 | -10.7 |
| O=C(c1cn(-c2ccccc2Cl)nn1)N1CCCSCC1 | -9.29 |
| CC(C)(CNC(=O)OC(C)(C)C)NC(=O)C1CC(=O)N(C2CC2)C1 (stereo not given) | 13.1 |
| C=C(C)CN(Cc1cccc(O)c1)C1CCC(O)CC1 (stereo not given) | -6.84 |
| CCN1CC(C(=O)NC(C)(C)CNC(=O)OC(C)(C)C)CC1=O (stereo not given) | -8.18 |
| N#Cc1cccnc1NCc1cccnc1N1CCC(C(N)=O)CC1 | -9.67 |
| COc1ccccc1OCC(=O)N1CCN(Cc2noc(C)n2)CC1 | -10.6 |
| Cc1cnn(CC2CCCN2Cc2cc(=O)n3cccc(C)c3n2)c1 (stereo not given) | -7.45 |
| Cc1cccn2c(=O)cc(CN3CCCCC3Cn3cncn3)nc12 (stereo not given) | 7.36 |
| CC(NC1(CNC(=O)C(C)(C)C#N)CCOCC1)c1ccccc1 (stereo not given) | 15.5 |
| Cc1ccc(C2CSCCN2C(=O)c2ccsc2)o1 (stereo not given) | -6.25 |
| Cc1cc(C)n(-c2cncc(NCCNC(=O)CC3CCCC3)n2)n1 | -4.52 |
| CC1CCCN(C(=O)c2csc(S(N)(=O)=O)c2)CC1 (stereo not given) | -1.03 |
| FC(F)(F)C1CCc2nnc(CNCc3ccsc3)n2C1 (stereo not given) | -2.38 |
| C[S+]([O-])c1nncn1CC(=O)c1ccc(Cl)c(Cl)c1 (stereo not given) | -3.69 |
| CCN1CC(C(=O)NC(C)(C)CC(C)(C)C)CC1=O (stereo not given) | -1.71 |
| Cc1nc(CN2CCN(C(=O)COCc3ccccc3)CC2)no1 | -9.26 |
| CCN1CCC(CNC(=O)C2(c3cccc(C)c3)CCCCC2)CC1 | 1.1 |
| Cc1cnn(CC(C)NCc2nc(-c3ccsc3)oc2C)c1 (stereo not given) | -8.91 |
| CCN1CCC(NC(=O)CN2CC(n3nc(C)cc3C)C2)CC1 | -6.85 |
| CN(C)CCN1CCN(C(=O)c2ccn(C)c(=O)c2)CC1 | -11.6 |

| SMILES | cytotoxicity at 70.5 h [%] |
| --- | --- |
| Cc1ccc(C)c(C(=O)N2CCN(C(=O)Cc3ccccn3)CC2)c1 | -8.87 |
| Fc1ccc(OCCNCCn2cccn2)cc1 | -9.89 |
| COCc1nc(C(=O)N2CCCC2c2ccc(OC)cc2)cs1 (stereo not given) | -14.3 |
| Cc1cccc(C(=O)N2CCC(c3n[nH]c(C4CC4)n3)CC2)c1 | 20.7 |
| N#Cc1ccc(OCCNCCn2cccn2)cc1 | -10.2 |
| COCc1nc(C(=O)N2CCCC2c2cccs2)cs1 (stereo not given) | -7.86 |
| CC(Cn1cccn1)NCc1csc(-c2ccsc2)n1 (stereo not given) | -12.1 |
| Cc1nn(C)c(N(C)C)c1CNCc1ccnc(N2CCOCC2)c1 | -5.46 |
| CCn1cnnc1CNC(=O)c1cc(Cl)ccc1I | -10.9 |
| CCn1cnnc1CNC(=O)c1ccc(Cl)cc1I | -7.84 |
| CC(=O)Nc1nc(C(=O)NCc2ccc(OC(C)C)nc2)cs1 | -5.15 |
| CC(=O)Nc1nc(C(=O)NCc2ccc(N3CCOCC3)nc2)cs1 | 14.9 |
| CCn1cnnc1CNC(=O)c1cc(Cl)ccc1F | -11.5 |
| COc1c(CNCc2ccnc(N3CCOCC3)c2)c(C)nn1C | -3.59 |
| O=C(CCNc1ncccn1)N1CCCC(n2cccn2)C1 (stereo not given) | -5.02 |
| CC(C)Cc1nc(CN2CCN(CC(O)c3ccccc3)CC2)no1 (stereo not given) | -3.23 |
| Cn1ccc(C(=O)N2CCN(CC(O)C(C)(C)C)CC2)cc1=O (stereo not given) | -5.62 |
| O=C(CCCNc1ncccn1)N1CCCC(n2cncn2)C1 (stereo not given) | -7.32 |
| CCc1nc(CN2CCCN(C(=O)c3ccco3)CC2)cs1 | 16.2 |
| Cc1cc(C)n(CC2CCCN2C(=O)c2ccc(NC3CC3)nc2)n1 (stereo not given) | 20.6 |
| COc1ccc(NC(=O)NCC(O)c2ccccc2F)c(OC)c1 (stereo not given) | 19.2 |
| O=S(=O)(NCc1ccccc1Cn1cncn1)N1CCCCCC1 | -7.52 |

| SMILES | cytotoxicity at 70.5 h [%] |
| --- | --- |
| O=S(=O)(NCc1ccccc1Cn1cncn1)N1CCCCC1 | -10.7 |
| CCOc1cc(/C=C/c2ncc(C(=O)O)s2)cc(Br)c1OC | -10.4 |
| CCOc1cc(/C=C/c2ncc(C(=O)O)s2)cc(Br)c1O | -11.1 |
| CCn1cc(NC(=O)C2CCN(Cc3nc(C(C)C)no3)CC2)cn1 | -6.8 |
| Cn1cc(C(=O)NCC2CCN(C(=O)NC3CCCCC3)CC2)cn1 | -15.9 |
| c1ccc(Cc2noc(CN3CCCC(Cn4cncn4)C3)n2)cc1 (stereo not given) | -14.5 |
| COC(=O)C(c1cc(F)ccc1F)N(C)C(=O)c1cnccn1 (stereo not given) | 21.6 |
| Cc1nc(CN2CCCN(C(=O)CCc3ccco3)CC2)cs1 | -12.4 |
| Cc1ccc(NC2CCN(C(=O)COC3CCCCC3)CC2)nn1 | 20.5 |
| Cc1ccc(NC2CCN(C(=O)COCC3CC3)CC2)nn1 | -2.64 |
| Cc1cc(C)n(CC2CCCN2C(=O)c2c[nH]c(=O)c(Cl)c2)n1 (stereo not given) | -11.8 |
| Cc1ncsc1C(=O)N1CCCC(n2cncn2)C1 (stereo not given) | -13.3 |
| CCn1cc(NC(=O)C2CCN(Cc3noc(C4CC4)n3)CC2)cn1 | -8.03 |
| CC(C)(C)c1nc(CN2CCCC(Cn3cncn3)C2)no1 (stereo not given) | -13.7 |
| O=C(c1cncc2ccccc12)N1CCC[C@@H]1CO | -11.6 |
| COc1c(C2CCCN2CC(=O)NCc2ccccn2)c(C)nn1C (stereo not given) | -11.4 |
| COC(=O)C(c1ccccc1)N(C)C(=O)c1ccnc(C)n1 (stereo not given) | -8.31 |
| O=C(NCCNc1cnccn1)N1CCCC(N2CCCC2)C1 (stereo not given) | 3.31 |
| Clc1ccc(OCCCN2CCOC(Cn3cncn3)C2)cc1 (stereo not given) | 24.6 |
| CC(C)Sc1ncccc1C(=O)NCc1ccoc1 | -9.56 |
| Cc1cc(C)c(CNC(=O)N2CCCC2c2ccc(F)cc2)c(=O)[nH]1 (stereo not given) | -6.72 |
| CC(C)Sc1ncccc1C(=O)NCc1cccc(N(C)C)c1 | 0.244 |

| SMILES | cytotoxicity at 70.5 h [%] |
| --- | --- |
| N#Cc1cccnc1N1CCCN(C(=O)CCn2cccn2)CC1 | -9.39 |
| O=C1NCC(C(=O)Nc2ncc(Cc3ccccc3F)s2)N1 (stereo not given) | 3.26 |
| O=C1NCC(C(=O)Nc2ncc(Cc3ccccc3)s2)N1 (stereo not given) | 44.7 |
| Cc1cc(NC(=O)CNC2CCCN(c3cccnn3)C2)on1 (stereo not given) | 43.8 |
| O=C1NCC(C(=O)Nc2ncc(Cc3ccc(F)cc3)s2)N1 (stereo not given) | -3.14 |
| CC(C)(C)c1n[nH]c(C2CN(C(=O)Cn3ccccc3=O)CCO2)n1 (stereo not given) | -5.55 |
| CCCc1n[nH]c(C2CN(C(=O)Cn3ccccc3=O)CCO2)n1 (stereo not given) | -4.93 |
| CC(c1ccc(F)c(F)c1)N1CCN(Cc2nccn2C)CC1 (stereo not given) | 47.8 |
| CCOc1nnc(CN2CCOC(CNc3cccnn3)C2)s1 (stereo not given) | 15 |
| CC(O)CN1CCN(C(=O)c2cccc(CC#N)c2)CC1 (stereo not given) | 12.7 |
| CC(O)CN1CCN(C(=O)c2ccc(N(C)C)nc2)CC1 (stereo not given) | 12 |
| CN(CCCNC(=O)N1CCCC1c1ccsc1)c1ccccn1 (stereo not given) | 16.8 |
| O=C(NCCN1CCOCC1)c1n[nH]c(=O)c2ccccc12 | -10.8 |
| O=C(NCCCN1CCCC1)c1n[nH]c(=O)c2ccccc12 | -9.07 |
| COc1ccc(C2CCCN2C(=O)c2csc(NC(C)=O)n2)cc1 (stereo not given) | -20.6 |
| CN(Cc1cnn(C)c1)C(=O)NC1CCN(c2ncccn2)CC1 | 12.2 |
| COc1ncccc1NC(=O)C1CCS(=O)(=O)C1 (stereo not given) | -15.1 |
| Cc1ncsc1C(=O)NC1CCN(Cc2ccc(C#N)cc2)CC1 | -14.1 |
| CC(=O)Nc1nc(C(=O)N2CCCC2c2ccccc2C)cs1 (stereo not given) | -19.1 |
